Here are results for 25 molecules from ChEMBL document CHEMBL3352601, “Discovery of potent iminoheterocycle BACE1 inhibitors” (Bioorg Med Chem Lett, 2014).

For data set [1], the target named is T1, Beta-secretase 1 (Homo sapiens, UniProt P56817).
Description: Inhibition of purified human BACE1 by FRET assay
Data set [2] has as its target Cathepsin D (Homo sapiens, UniProt P07339).
Description: Inhibition of cathepsin-D (unknown origin)
The species entered for data set [3] is Mus musculus. The experiment in a line: Reduction of cortical amyloid beta 40 level in CRND8-APP mouse model. In kind it is functional, organism-based.
The target of data set [4] is T1, Beta-secretase 1. Nature of the data set: Inhibition of BACE1-mediated amyloid beta 40 production in HEK293-APPswe/lon cells by whole cell assay in presence of P-gp inhibitor. Format: cell-based.
Data set [5] deals with T1, Beta-secretase 1. Nature of the data set: Inhibition of BACE1-mediated amyloid beta 40 production in HEK293-APPswe/lon cells by whole cell assay. In kind it is cell-based.
Data set [6] is described as follows: in vivo. The settings on record: rat, plasma, sc, 10 mg/kg.
Data set [7] relates to Rattus norvegicus. The experiment in a line: Reduction of amyloid beta 40 level in rat plasma at 30 mg/kg, po relative to control. Format: functional. On the set-up: scale not given: the % may be the effect or the level left.

Each structure is given as a SMILES string. Calls of active or inactive are those of the source. The calls are words filed in the database; no cut-off is given here.

Chain of Cathepsin D (P07339 65-162 limits assumed): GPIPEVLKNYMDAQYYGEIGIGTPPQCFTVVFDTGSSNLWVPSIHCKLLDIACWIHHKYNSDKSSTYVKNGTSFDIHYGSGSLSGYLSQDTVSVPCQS
Chain of Cathepsin D (P07339 169-412 limits assumed): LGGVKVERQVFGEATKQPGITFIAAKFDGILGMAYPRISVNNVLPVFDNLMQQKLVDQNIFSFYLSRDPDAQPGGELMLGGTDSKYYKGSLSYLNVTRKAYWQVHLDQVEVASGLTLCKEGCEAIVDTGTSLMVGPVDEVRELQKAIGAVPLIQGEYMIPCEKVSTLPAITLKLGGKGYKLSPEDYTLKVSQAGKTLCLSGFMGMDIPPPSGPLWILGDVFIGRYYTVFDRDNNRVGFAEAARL
T1 sequence (P56817 whole entry): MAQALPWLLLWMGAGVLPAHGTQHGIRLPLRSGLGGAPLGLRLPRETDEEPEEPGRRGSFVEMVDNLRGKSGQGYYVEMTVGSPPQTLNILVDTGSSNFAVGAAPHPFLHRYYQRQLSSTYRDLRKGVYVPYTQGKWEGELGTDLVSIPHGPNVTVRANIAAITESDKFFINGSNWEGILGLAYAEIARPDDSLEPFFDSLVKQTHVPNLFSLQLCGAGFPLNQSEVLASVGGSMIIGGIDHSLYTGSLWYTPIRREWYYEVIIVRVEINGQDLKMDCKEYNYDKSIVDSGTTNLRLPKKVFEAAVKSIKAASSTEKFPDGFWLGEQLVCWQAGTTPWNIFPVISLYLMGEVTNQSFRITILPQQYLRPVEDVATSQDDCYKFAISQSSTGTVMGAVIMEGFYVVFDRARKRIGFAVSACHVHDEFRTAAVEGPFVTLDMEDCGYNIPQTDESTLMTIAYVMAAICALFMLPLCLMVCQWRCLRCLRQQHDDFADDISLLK

What is called Ki is the dissociation constant of the complex between target and ligand, obtained from inhibition or displacement. Consider `CN1C(=N)N[C@](CCC2CCCCC2)(C[C@H]2CCC[C@@H](NC(=O)Nc3cnc4ccccc4n3)C2)C1=O`, for which the figures for the inhibition constant Ki in data set [1] and in data set [2] were 0.014 µM and 7.5 µM, respectively.

Consider `CN1C(=N)N[C@](CCC2CCCCC2)(C[C@H]2CCC[C@@H](NC(=O)Cc3ccccc3)C2)C1=O`, for which the figures for the Ki in data set [1] and in data set [2] were 0.585 µM and 3.5 µM, respectively.

Take `CCCCCN1CCC[C@H](C[C@@]2(CCC3CCCCC3)NC(=N)N(C)C2=O)C1`: the inhibitory constant (Ki) is 7.6 µM in data set [1] and more than 100 µM in data set [2].

On to `CN1C(=N)N[C@](CCC2CCCCC2)(C[C@H]2CCCN(C(=O)CC3CCCC3)C2)C1=O`, for which affinity in data set [2] was put at a Ki of 0.87 µM.

Consider `CN1C(=N)N[C@](CCC2CCCCC2)(C[C@H]2CCC[C@@H](NC(=O)Nc3ccccc3Cl)C2)C1=O`, for which the Ki in data set [1] was found to be 0.301 µM; in data set [2], 8.5 µM.

With `CN1C(=N)N[C@](CCC2CCCCC2)(C[C@H]2CCC[C@@H](NCC3CC3)C2)C1=O`, the results for the Ki in data set [1] and in data set [2] were 0.48 µM and 53.3 µM, respectively.

For the molecule `CCCCC(=O)N1CC[C@H](C[C@@]2(CCC3CCCCC3)NC(=N)N(C)C2=O)C1`, the Ki came to 0.49 µM in data set [1] and 23 µM in data set [2].

Regarding `COc1ccccc1NC(=O)N[C@@H]1CCC[C@H](C[C@@]2(CCC3CCCCC3)NC(=N)N(C)C2=O)C1`, the Ki in data set [1] stood at 0.276 µM; in data set [2], 2.4 µM.

As to `CCCCC(=O)N1CC[C@@H](C[C@@]2(CCC3CCCCC3)NC(=N)N(C)C2=O)C1`, the affinity in data set [1], expressed as Ki, was 17.4 µM.

Regarding `CN1C(=N)N[C@](CCC2CCCCC2)(C[C@@H]2CCCN(C(=O)CC3CCCC3)C2)C1=O`, the affinity in data set [2] corresponds to a Ki of 8.5 µM.

As a reminder, the EC50 is the midpoint of the concentration-response curve. Usually AUC(0-t) stands for the area under the concentration-time curve up to a stated or last time point. Regarding `CN1C(=N)N[C@](CCC2CCCCC2)(C[C@H]2CCC[C@@H](NC(=O)Nc3ccc4ccccc4n3)C2)C1=O`, in data set [3], the outcome was inactive. Also, the EC50 in data set [4] turned out to be 0.11 µM; in data set [5], 0.258 µM. The molecule also gave an AUC(0-t) at 6 h in data set [6] of 0.306 µM·h. This molecule gave an Activity in data set [7] of 55%. Moreover, the inhibition constant Ki in data set [1] was determined as 0.022 µM; in data set [2], 25 µM.

For the molecule `CN1C(=N)N[C@](CCC2CCCCC2)(C[C@@H]2CCCN(C(=O)OC(C)(C)C)C2)C1=O`, the figures for the Ki in data set [1] and in data set [2] were 41 µM and 33 µM, respectively.

`CN1C(=N)N[C@](CCC2CCCCC2)(C[C@H]2CCC[C@@H](NC(=O)c3ccccc3)C2)C1=O`: the Ki in data set [1] worked out at 0.13 µM; in data set [2], 3.8 µM.

With `CCCCS(=O)(=O)N1CCC[C@H](C[C@@]2(CCC3CCCCC3)NC(=N)N(C)C2=O)C1`, the inhibition constant (Ki) turned out to be 6.3 µM in data set [1] and 25.5 µM in data set [2].

With `CCCCC(=O)N1CCC[C@H](C[C@@]2(CCC3CCCCC3)NC(=N)N(C)C2=O)C1`, the Ki in data set [1] is 3.2 µM; in data set [2], 44 µM.

Take `CN1C(=N)N[C@](CCC2CCCCC2)(C[C@H]2CCC[C@@H](NC3CCCCC3)C2)C1=O`: the Ki in data set [1] was 0.23 µM; in data set [2], 63.5 µM.

`CN1C(=N)N[C@](CCC2CCCCC2)(C[C@@H]2CCCNC2)C1=O`: the Ki was 66 µM in data set [1] and more than 100 µM in data set [2].

For the molecule `COc1ccc(NC(=O)N[C@@H]2CCC[C@H](C[C@@]3(CCC4CCCCC4)NC(=N)N(C)C3=O)C2)cc1`, the results for the Ki in data set [1] and in data set [2] were 0.01 µM and 2.5 µM, respectively.

Regarding `CCCCC(=O)N1CCC[C@@H](C[C@@]2(CCC3CCCCC3)NC(=N)N(C)C2=O)C1`, the Ki in data set [1] turned out to be 17 µM; in data set [2] it was 28 µM.

On to `CN1C(=N)N[C@](CCC2CCCCC2)(C[C@H]2CCCNC2)C1=O`, for which the values for the Ki in data set [1] and in data set [2] were 8.5 µM and more than 100 µM, respectively.

In the case of `CN1C(=N)N[C@](CCC2CCCCC2)(C[C@H]2CCC[C@@H](NC(=O)NC3CCCCC3)C2)C1=O`, the results for the Ki in data set [1] and in data set [2] were 0.138 µM and 6 µM, respectively.

For `CCCNC(=O)N1CCC[C@H](C[C@@]2(CCC3CCCCC3)NC(=N)N(C)C2=O)C1`, the Ki in data set [1] came to 8.5 µM; in data set [2], 2.8 µM.

On to `CN1C(=N)N[C@](CCC2CCCCC2)(C[C@H]2CCCN(C(=O)OC(C)(C)C)C2)C1=O`, for which the Ki was 29 µM in data set [1] and more than 100 µM in data set [2].

For the molecule `CN1C(=N)N[C@](CCC2CCCCC2)(C[C@H]2CCC[C@@H](NC(=O)Nc3ccc(Cl)cc3)C2)C1=O`, the figures for the Ki in data set [1] and in data set [2] were 0.01 µM and more than 100 µM, respectively.

As to `CN1C(=N)N[C@](CCC2CCCCC2)(C[C@H]2CCC[C@@H](NC(=O)Nc3ccc(C#N)cc3)C2)C1=O`, the results for the Ki in data set [1] and in data set [2] were 0.003 µM and 6.9 µM, respectively.
